From patent publication US8822172B2, “Method of detecting isolevuglandin phospholipid adducts” (Case Western Reserve University, priority 2009, dated 2014)
Where two headings read alike, the source gives them in different places.

What was measured:
[1] = Cu^2+; cited from earlier work
[2] = Ca2^+; cited from earlier work
[3] = Fe^3+; cited from earlier work
CYP2E1 = conditions: chronic ethanol feeding, maximum at 5% wk 2
Description: All procedures using animals were approved by the Cleveland Clinic Foundation Institutional Animal Care and Use Committees. Mice were housed in shoe-box cages (2 animals/cage) with microisolator lids. Standard microisolator handling procedures were used throughout the study. […] Mice were then anesthetized, blood samples taken into non-heparinized syringes from the posterior vena cava, livers blanched with saline via the portal vein and then excised. Portions of each liver were then either fixed in formalin or frozen in optimal cutting temperature (OCT) compound (Sakura Finetek U.S.A., Inc., Torrance Calif.) for histology, frozen in RNAlater (Qiagen, Valencia, Calif.) or flash frozen in liquid nitrogen and stored at −80° C. until further analysis. […]
0.5-1.0 g of frozen liver tissue was homogenized in 10 ml/g tissue in lysis buffer (50 mM Tris-HCl, pH7.4, 1% NP-40, 0.25% Na-deoxycholate, 150 mM NaCl, 1 mM EDTA with added protease inhibitors Complete™ (Roche Diagnostics, Mannheim, Germany), 17.5 μg/ml aprotinin, 5 μg/ml bestatin, 10 μg/ml leupeptin, 1 mg/ml bacitracin, and 20 μg/ml E64) and phosphatase inhibitors (1 mM vanadate and 10 mM Na pyrophosphate)) using 15 strokes in a glass on glass homogenizer (loose pestle). […] Protein concentrations were measured. […] Bound antibody was detected by chemiluminescence. Immunoreactive protein quantity was assessed by scanning densitometry.

plasma ALT = conditions: short-term model, 2, 4 or 6% ethanol diet for 2 days
Description: (§2) All procedures using animals were approved by the Cleveland Clinic Foundation Institutional Animal Care and Use Committees. Mice were housed in shoe-box cages (2 animals/cage) with microisolator lids. Standard microisolator handling procedures were used throughout the study. […] Mice were then anesthetized, blood samples taken into non-heparinized syringes from the posterior vena cava, livers blanched with saline via the portal vein and then excised. Portions of each liver were then either fixed in formalin or frozen in optimal cutting temperature (OCT) compound (Sakura Finetek U.S.A., Inc., Torrance Calif.) for histology, frozen in RNAlater (Qiagen, Valencia, Calif.) or flash frozen in liquid nitrogen and stored at −80° C. until further analysis. Blood was transferred to heparin-containing tubes for the isolation of plasma. Plasma was then stored at −80° C.
Plasma samples were assayed for alanine aminotransferase (ALT) using a commercially available enzymatic assay kit (Diagnostic Chemicals, LTD, Oxford, Conn.) following the manufacturer's instructions.

mouse liver [4] = conditions: chronic ethanol-fed mouse liver (5% wk 4), ELISA and LC/MS
Description: Mice were housed in shoe-box cages (2 animals/cage) with microisolator lids. Standard microisolator handling procedures were used throughout the study. […] Mice were then anesthetized, blood samples taken into non-heparinized syringes from the posterior vena cava, livers blanched with saline via the portal vein and then excised. Portions of each liver were then either fixed in formalin or frozen in optimal cutting temperature (OCT) compound (Sakura Finetek U.S.A., Inc., Torrance Calif.) for histology, frozen in RNAlater (Qiagen, Valencia, Calif.) or flash frozen in liquid nitrogen and stored at −80° C. until further analysis. Blood was transferred to heparin-containing tubes for the isolation of plasma. Plasma was then stored at −80° C.
Liver homogenates were prepared as described except that 50 μM butylated hydroxytoluene (BHT) and 100 μM diethylenetriamine pentaacetic acid (DTPA) were added to the buffer to prevent aerial oxidation of lipids during homogenization. 50 μg of protein was used in the ELISA.

mouse liver [5] = conditions: short-term model of ethanol exposure, 2, 4 or 6% for 2 days
Description: (§1) All procedures using animals were approved by the Cleveland Clinic Foundation Institutional Animal Care and Use Committees. Mice were housed in shoe-box cages (2 animals/cage) with microisolator lids. Standard microisolator handling procedures were used throughout the study. Mice were randomized into ethanol-fed and pair-fed groups and then adapted to control liquid diet for 2 days. The ethanol-fed group was allowed free access to ethanol containing diet with increasing concentrations of ethanol: 1% (vol/vol) and 2% each for 2 days, then 4% ethanol for 7 d, and finally 5% ethanol for a further 4 weeks. For the dose-response experiment, mice were allowed free access to 1% ethanol for 2 days and then 2%, 4% or 6% ethanol for a further 2 days. Control mice were pair-fed diets which iso-calorically substituted maltose dextrins for ethanol over the entire feeding period. Mice were then anesthetized, blood samples taken into non-heparinized syringes from the posterior vena cava, livers blanched with saline via the portal vein and then excised. Portions of each liver were then either fixed in formalin or frozen in optimal cutting temperature (OCT) compound (Sakura Finetek U.S.A., Inc., Torrance Calif.) for histology, frozen in RNAlater (Qiagen, Valencia, Calif.) or flash frozen in liquid nitrogen and stored at −80° C. until further analysis. […]

TNF-α = conditions: long-term ethanol feeding; early peak at 2% d2, later peak at 5% wk 4
Description: as §1

mouse liver [6] = conditions: chronic ethanol-fed vs pair-fed mice, P=0.00021
Description: The tissue was homogenized manually using a Teflon-coated stainless steel pestle. After homogenization, the resulting mixture was placed in a 4° C. freezer for 30 min to maximize the lipid extraction efficiency. An aqueous solution of sodium chloride (1.5%, w/w, 1/4 the volume of the organic extract) was added. The resulting mixture was centrifuged at 3000 rpm for 15 min. The lower layer containing the lipids was carefully withdrawn with a polyethylene transfer pipette, making sure to avoid the interface or upper layer. The solvents were then evaporated under a stream of dry argon at room temperature, and the sample was stored under argon at −80° C. before being analyzed using LC-MS/MS.
The resulting mixture was sonicated for 5 min followed by the addition of PLA2 enzyme (50 μl of 10,000 units/ml). […]
Direct infusion MS and LC-MS/MS were performed on a Quattro Ultima triple-quadrupole mass spectrometer (Micromass, Wythenshawe, UK). […] The total ion current was measured in the mass-to-charge ratio (m/z) range of 50-900 at 30 V of cone energy in the negative ion mode with a 3.5-kV electrospray capillary voltage, 60-V cone voltage, 120° C. source temperature, 250° C. desolvation temperature, 65 L/h cone gas flow, and 658 L/h desolvation gas flow. […] All retention times of analytes shown in MRM spectra were recorded relative to the internal standard (iso[4]LGE2-D31-lysoPE-HL, 11.83 min). […]

hepatic triglycerides = conditions: short-term model, 2, 4 or 6% ethanol diet for 2 days
Description: as §2
Formalin-fixed tissues were paraffin embedded, sectioned and stained with hematoxylin and eosin. Sections were coded prior to analysis and examined by two independent individuals. For Oil Red O staining, 10 micron sections were cut from frozen OCT samples and affixed to a microscope slide. Slides were then stored at 4° C. until staining. […] Total liver triglycerides were measured using the Triglyceride Reagent Kit from Pointe Scientific Inc. (Lincoln Park, Mich.).

SMILES	stability constant log K of EDTA complex [1]	stability constant log K of EDTA complex [2]	stability constant log K of EDTA complex [3]	hepatic CYP2E1 expression (CYP2E1)	plasma ALT (plasma ALT)	adducts of iso[4]LGE2 in liver compared to pair-fed animals (mouse liver [4]) [fold]	4-HNE, LGE2 and iso[4]LGE2-protein adducts in liver (mouse liver [5])	TNF-α in mouse liver (TNF-α)	isoLG-lysoPE-HL liver levels compared to pair-fed mice (mouse liver [6])	hepatic triglycerides (hepatic triglycerides)
O=C(O)CN(CCN(CC(=O)O)CC(=O)O)CC(=O)O [EDTA, ethylenediaminetetraacetic acid]	18.8	10.7	25.1	–	–	–	–	–	–	–
CCO [ethanol]	–	–	–	increased over time	increased at 4 and 6%	2	increased only at 6% ethanol feeding	biphasic induction	Twofold higher	increased at 4 and 6%
